This note sets out measurements from US7008621B2, “Regulation of apoptosis in aquatic organisms by aquabirnavirus” (Academia Sinica, priority 1999, dated 2006).

Entries after “also recorded” stand apart in the source; their conditions may differ.

For assay [1], the system named is CHSE-214 cells infected with IPNV E1-S. Nature of the assay: DNA internucleosomal cleavage induced by IPNV, agarose gel electrophoresis. Type of assay: cell-based, Chinook salmon. The note with it: 16 h postinfection. As for the experimental part: Lane 2: DNA isolated from uninfected CHSE-214 cells as a negative control. Lane 3: cells infected for 16 h with an MOI of 1 of E1-S, respectively, at 16 h postinfection. Lanes 6 and 7: CHSE-214 cells treated with aprotinin (400 μg/ml) in the absence and presence of infection by an MOI of 1 of E1-S, respectively, at 16 h postinfection. Lanes 8 and 9: CHSE-214 cells treated with leupeptin (400 μg/ml) in the absence and presence of infection by an MOI of 1 of E1-S, respectively, at 16 h postinfection. Lanes 10 and 11: CHSE-214 cells treated with genistein (100 μg/ml) in the absence and presence of infection by an MOI of 1 of E1-S, respectively; at 16 h postinfection. Lanes 12 and 13: CHSE-214 cells treated with tyrphostin (100 μg/ml) in the absence and presence of infection by an MOI of 1 of E1-S, respectively, at 16 h postinfection. Lanes 14 and 15: CHSE-214 cells treated with 2 mM EDTA in the absence and presence of infection by an MOI of 1 of E1-S, respectively, at 16 h postinfection. All samples were electrophoresed through 1.2% agarose gels and visualized by ethidium bromide staining. Lane 1 contains the molecular weight marekers used in the gel (1 kb DNA ladder from MBI for sizing linear fragments ranging in size from 500 bp to […]).
About 10^5 cells per ml were seeded on a 60-mm-diameter petri dish and allowed to grow for more than 20 h. The cell monolayers received virus at an MOI of 1.0 and were incubated for 8 h. Uninfected control cells were also incubated for 8 h. The two groups were used for DNA fragmentation studies. At the end of incubation, the cells were lysed with lysis buffer (10 mM Tris-HCl, 0.25% Triton X-100, 1 mM EDTA, pH 7.4). After treatment with phenol-chloroform-isoamyl alcohol (25:24:1), the DNA was precipitated in the presence of 0.3 M sodium acetate and cold absolute ethanol at −70° C. for 2 h and then resuspended in 10 mM Tris-HCl (pH 7.4)−1 mM EDTA. […]

For assay [2], the system named is Mcl-1 protein. Description: Prevention of down-regulation of Mcl-1 protein expression by IPNV, Western blot. In kind it is cell-based, Chinook salmon. The note with it: 16 h. As for the experimental part: (§1) After adding protein synthesis inhibitor, serine proteinase inhibitors, tyrosine kinase inhibitors and a cation chelator, CHSE-214-EGFP cells were infected with IPNV (MOI of 1) then incubated for 16 h at 18° C. Samples were electrophoresed on a 12% SDS-polyacrylamide gel and electroblotted to a nitrocellulose membrane. Antigen-specific signals were detected with a rabbit anti-EI-S virion antiserum (A) or with a rabbit anti-human Mcl-1 antiserum (Pharmingen) (B) and with a mouse monoclonal IgG antibody directed against mouse actin (Chemicon) (C). (A) Lane 1, normal CHSE-214 cell lysate; lane 2, IPNV infected cell lysate at 16 h postinfection; lanes 3–8, 30 μg of cell lysate, to which was added cycloheximide (100 μg/ml), aprotinin (400 μg/ml), leupeptin (400 μg/ml), genistein (100 μg/ml), tyrphostin (100 μg/ml) and EDTA (2 mM), followed by IPNV infection and incubated cells for 16 h, respectively. (B,C) The nitrocellulose membrane from (A) was stripped and reprobed with Mcl-1 or an actin antibody, respectively.
(§2) About 10^5 cells/ml were seeded on a 60-mm. petri dish for growth for more than 20 h. Monolayers were rinsed twice with phosphate-buffered saline (PBS). Control cells or cells that received virus at a MOI of 1 were incubated for 0, 2, 4, 6, 8, 10 and 24 h. At the end of each incubation time the culture medium was aspirated. The cells were washed with PBS and then lysed in 0.3 nil lysis buffer [10 mM Tris base, 20% glycerol, 10 mM sodium dodecyl sulfate (SDS), 2% β-mercaptoethanol (P-ME), pH 6.8].
(§3) Proteins were separated by SDS-polyacrylamide gel electrophoresis (Laemmli, 1970), electroblotted, and subjected to immunodetection as described by Kain et al. (1994). Blots were incubated with a 1:1500 dilution of anti-human Mcl-1 polyclonal antibodies (Pharmingen) or a 1:7500 dilution of a peroxidase-labeled goat anti-rabbit conjugate (Amershan). Chemi-luminescent detection was performed according to the instructions provided with the Western Exposure Chemiluminescent Dectection System (Amershan). Chemiluminescent signals were imaged by exposure to Kodak XAR-5 film (Eastman Kodak, Rochester, N.Y., USA). Primary (Mcl-1) and secondary antibodies (peroxidase-labeled goat anti-rabbit conjugate) were stripped from blots by incubation in stripping buffer containing 62.5 mM Tris-HCI (pH 6.8), 3.0% (w/v) SDS and 50 mM 1,4-dithiothreitol for 30 min at 55° C. with gentle shaking. The blots were then washed four times for 10 min each time in PBS containing 0.1% (v/v) Tween 20 and reprobed with mouse actin monoclonal antibody (1/1500, Chemicon) and a 1:7500 dilution of a peroxidase-labeled sheep anti-mouse conjugate (Amersham).
(§4) At the end of the incubation period, cells were harvested and the samples were analyzed by Western blot method.
In general terms: In western blotting, separated proteins are transferred to a membrane and probed.

Assay [3] deals with CHSE-214-EGFP cells infected with IPNV. Description: EGFP release (membrane integrity) Western blot after drug pre-treatment and IPNV infection. In kind it is cell-based, Chinook salmon. The conditions noted are these: 16 h. On the procedure: Protein synthesis inhibitors, serine proteinase inhibitors, tyrosine kinase inhibitors, and a cation chelator were added to CHSE-214-EGFP cells before infection with IPNV (MOI of 1). After infection, the cells were incubated for 16 h. Samples were electrophoresed on a 12% SDS-polyacrylamide gel and electroblotted to a nitrocellulose membrane. Antigen-specific signals were detected with either rabbit anti-GFP serum (A and C) or a mouse IgG monoclonal antibody directed against actin (B). The chemiluminescent signal was imaged on Kodak XAR-5 film by using a 5-min (A), a 1-min (B), or a 30-min (C) exposure. (A) Lanes: 1, 0.2 μg of recombinant wild-type GFP as a positive control; 2, normal CHSE-214-EGFP cell lysate; 3, 30 μg of cell lysate protein corresponding to IPNV infection; 4–9, 30 μg of cell lysate protein corresponding to pre-treatment with cycloheximide (CHX) (100 μg/ml), aprotinin (400 μg/ml), leupeptin (400 μg/ml), genistein (100 μg/ml), tyrphostin (100 μg/ml), and EDTA (2 mM) and then followed by virus infection for 16 h, respectively. (B) The nitrocellulose membrane from panel A was stripped and reprobed with an actin antibody. (C) Lanes: 1, 100 ng of wide-type GFP; 2, 30 μg of supernatant medium protein from normal CHSE-214 cells; 3, 30 μg of supernatant medium protein from IPNV-infected cells at 16 h p.i. 4–9, 30 μg of supernatant medium protein corresponding to treatment with cycloheximide (CHX) (100 μg/ml), aprotinin (400 μg/ml), leupeptin (400 μg/ml), genistein (100 μg/ml), tyrphostin (100 μg/ml), and EDTA (2 mM) and then followed by virus infection for 16 h, respectively.
About 10^5 cells per ml were seeded on a 60-mm-diameter petri dish and allowed to grow for more than 20 h. The cell monolayers were rinsed twice with phosphate-buffered saline (PBS), after which they were infected at an MOI of 1 and incubated for 0, 2, 4, 6, 8, 10, 12, and 24 h post infection (p.i.). Uninfected control cells were also incubated for the same periods of time. At the end of each incubation time, the culture medium was aspirated. The cells were washed with PBS and then lysed in 0.3 ml of lysis buffer (10 mM Tris base, 20% glycerol, 10 mM sodium dodecyl sulfate [SDS], 2% β-mercaptoethanol, pH 6.8).
Proteins were separated by SDS-polyacrylamide gel electrophoresis, electroblotted, and subjected to immunodetection as described by Kain et al. (1994), Bio Techniques, 17:982–987. Blots were incubated with a 1:7,500 dilution of an immunoglobulin fraction (Clontech) and a 1:1,500 dilution of a peroxidase-labeled goat anti-rabbit conjugate (Amersham). Chemilumine-scence detection was performed in accordance with the instructions provided with the Western Exposure Chemiluminescent Detection System (Amersham). Chemiluminescent signals were imaged by exposure of Kodak XAR-5 film (Eastman Kodak, Rochester, N.Y.). Stripping and reprobing of the Western blot and removal of the primary and secondary antibodies from blot were achieved by incubation in stripping buffer containing 62.5 mM Tris-HCl (pH 6.8), 3.0% (wt/vol) SDS, and 50 mM 1,4-dithiothreitol for 30 min at 55° C. with gentle shaking. The blot was washed three times in PBS containing 0.1% (vol/vol) Tween 20 for 10 min each time and reprobed with antibodies beginning at the membrane blocking step.
At the end of the incubation period, cells were harvested and samples were analyzed by Western blotting.

Assay [4] has as its system IPNV E1-S. Description: Blocking of viral replication / viral protein expression, Western blot with anti-E1-S virion antiserum. Type of assay: cell-based, infectious pancreatic necrosis virus. The note with it: 16 h. As for the experimental part: as §1, §2, §3, §4
[5] abbreviates: 400 μg/ml before IPNV infection.
Setting [6] is: 400 μg/ml added before IPNV infection (MOI 1).

As to `O=C(O)CN(CCN(CC(=O)O)CC(=O)O)CC(=O)O` [EDTA], the “induction of DNA internucleosomal cleavage by IPNV” value (“induction” below) in assay [1] (2 mM before IPNV infection (MOI 1)) was “minor internucleosomal cleavage; also recorded: blocked the induction of DNA internucleosomal cleavage”. In addition, the “prevention of down-regulation of Mcl-1 protein expression” value in assay [2] (2 mM before IPNV infection) is “partially prevented down-regulation of Mcl-1 protein expression; also recorded: helped to maintain Mcl-1 expression level”. Moreover, in assay [3] (2 mM added before IPNV infection (MOI 1)), the “prevention of EGFP release” value is given as “completely prevented EGFP release”. Also, the “viral replication / viral protein expression” value in assay [4] (2 mM added to CHSE-214 cells before IPNV infection) is “viral replication was prevented; also recorded: blocked viral protein expression”.
aprotinin: the “prevention of down-regulation of Mcl-1 protein expression” value in assay [2] (setting [5]) is “could not”. Also, in assay [3] (setting [6]), the “prevention of EGFP release” value is given as “did not prevent EGFP release”.
Regarding `O=c1c(-c2ccc(O)cc2)coc2cc(O)cc(O)c12` [genistein], the “induction” value in assay [1] (100 μg/ml before IPNV infection (MOI 1)) is recorded as “blocked the induction of DNA internucleosomal cleavage”. Further, the “prevention of down-regulation of Mcl-1 protein expression” value in assay [2] (100 μg/ml before IPNV infection) is recorded as “partially prevented down-regulation of Mcl-1 protein expression; also recorded: helped to maintain Mcl-1 expression level”. In addition, the “prevention of EGFP release” value in assay [3] (100 μg/ml added before IPNV infection (MOI 1)) is “partially prevented EGFP release”. In addition, in assay [4] (100 μg/ml added to CHSE-214 cells before IPNV infection), the “viral replication / viral protein expression” value is “viral replication was prevented; also recorded: blocked viral protein expression”.
Regarding `CC(=O)N[C@@H](CC(C)C)C(=O)N[C@@H](CC(C)C)C(=O)N[C@H](C=O)CCCNC(=N)N` [leupeptin], in assay [2] (setting [5]), the “prevention of down-regulation of Mcl-1 protein expression” value is recorded as “could not”. Further, in assay [3] (setting [6]), the “prevention of EGFP release” value is “did not prevent EGFP release”.
In the case of `C[C@@H]1C[C@@H]([C@H](O)CC2CC(=O)NC(=O)C2)C(=O)[C@@H](C)C1` [CHX, cycloheximide], the “induction” value in assay [1] (10 μg/ml before IPNV infection (MOI 1)) is on record as “blocked the induction of DNA internucleosomal cleavage”. In addition, the “prevention of down-regulation of Mcl-1 protein expression” value was “helped to maintain Mcl-1 expression level” in assay [2] (10 μg/ml before IPNV infection) and “partially prevented down-regulation of Mcl-1 protein expression” in assay [2] (10 μg/ml before IPNV infection, listed as cyclohexamide). The “prevention of EGFP release” value in assay [3] (10 μg/ml added before IPNV infection (MOI 1)) was “completely prevented EGFP release”. Besides, the “viral replication / viral protein expression” value was “blocked viral protein expression” in assay [4] (10 μg/ml added to CHSE-214 cells before IPNV infection) and “viral replication was prevented” in assay [4] (10 μg/ml added to CHSE-214 cells before IPNV infection, listed as cyclohexamide).
